Read-outs that look alike come from different tables or passages of the source. Blank lines part the entries; values can stand above or below the compound they belong to.
How the values were obtained:
adjuvant arthritis = assay: chronic adjuvant arthritis test in rats (Table I); type: in vivo, male Charles River Lewis rats; conditions: for change in vivo at 95 µmol/kg / change in vivo at 3 µmol/kg: Rattus norvegicus, 552 h; for change in vivo at 3 µmol/kg: oral 3 μMol/Kg
Method: That the compounds of this invention are effective anti-arthritic agents can be seen from the results obtained when these compounds are administered to rats in accordance with the chronic adjuvant arthritis test system disclosed in Billingham and Davies "Handbook of Experimental Pharmacology" (editors J.R. Vane and S.H. Ferreira) Vol. 50/II, pg. 108-144, Springer-Verlag, Berlin, 1979).
In this procedure, adjuvant arthritis was induced by the subplantar injection on day o of 0.05 ml of adjuvant [a suspension of heat-killed, dessicated Mycobacterium butyricum, 0.5% (w/v), in heavy mineral oil containing 0.2% digitonin] into the right hind paw of male Charles River Lewis rats (120-140g) that were housed individually and given food and water ad lib. paw volumes (both hind paws) were measured immediately after injection of the adjuvant. paw Volumes were also measured, to follow the development of inflammation-induced swelling in the arthritic paws, at intervals of 3 to 7 days by immersion of the paw to the level of the lateral malleolus in a mercury plethysmograph.
Drugs were administered once a day (starting on the day of adjuvant injection) by […] using Tween 80 (polyoxyethylene sorbitan mono-oleate) at a dose of 0.25 ml/100 g body Weight as the vehicle. Arthritic control rats received daily doses of the vehicle only. On day 23-25, the rats were sacrificed, plasma collected and plasma fibrinogen levels determined (ammonium sulfate turbidimetric method) as described by Exner et al., Amer. J. Clin Path, 71:521-527 (1979). Anti-inflammatory activity of the test drugs were determined by comparing the extent of paw swelling (paw volume on a particular day, i.e. day four to day twenty-five, minus the paw volume on day 0) in drug-treated arthritic rats with the extent of paw swelling in the vehicle-treated arthritic rats. Drug induced decreases in the level of plasma fibrinogen. an acute phase protein that is elevated in the plasma of rats with adjuvant-induced arthritis, were also used to quantitate the anti-inflammatory activity.

[1] = test system: type II collagen arthritis; assay: established type II collagen arthritis (Table IV); type: in vivo, male and female Alderley Park Strain 1 rats; conditions: 100 mg.kg^-1 p.o.; male and female rats
Method: In all tests, Compound A and the other retinoids tested concurrently were formulated in arachis oil containing 0.05% propylgallate as anti-oxidant. The dose volumes used were 5 ml.kg^-1 for rats and 10 ml.kg^-1 for mice. Controls were dosed with the appropriate volume of arachis oil vehicle.
Animals -- Male and female Alderley Park Strain 1 rats.
Materials -- Type 2 collagen (prepared from bovine nasal septum cartilage), Freunds incomplete adjuvant (Difco).
Method -- Rats were sensitized to type 2 collagen by injecting them intradermally with 1 ml. of a water in oil emulsion consisting of equal parts of a 1 mg.ml^-1 solution of type 2 collagen in 0.45M NaCl, 0.02M Tris, PH 7.4 and Freunds incomplete adjuvant. Rats developing arthritis were allocated on day 15 post sensitization to a control arachis oil treated group (6 male, 4 female) or to the Compound A treated group (6 male, 5 female). Hind paw volume measurements were taken to ensure even distribution of rats between groups. An overnight collection of urine was made on days 15/16 and dosing commenced on day 16. […] Compound A was dosed at 100 mg.kg^-1 p.o. On days 19/20 a second overnight collection of urine was made. […] On day 20 a second hind paw measurement was taken. Rats were then anaesthetised with sodium pentobarbitone, bled, killed and X-rays taken of hind and forepaws. Rats were dosed on days 16-19 inclusive (4 doses).

[2] = test system: 4 hr carrageenan pleurisy; assay: 4 hr carrageenan pleurisy, non-immune inflammation (Table V); type: in vivo, female Alderley Park Strain 1 rats; conditions: 10 days
Method: Animals -- Female Alderley Park Strain 1 rats weighing 170-205 g. at the start of the experiment were used.
Materials -- Lambda -carrageenan. Prepared as a solution in saline and sterilized by autoclaving.
Method -- Compound A was administered orally to groups of 8 rats once daily for 10 days at doses of 10, 30 and 100 mg.kg^-1. Control animals received the vehicle. One hour after the last dose the animals were anesthetised with methohexitone (Brietal, 50 mg.kg-1) and 0.2 ml of 1% lambda carrageenan was injected into the pleural cavity. Four hours later the animals were killed with an overdose of pentobarbitone (Sagatal), the pleural exudate was collected and the pleural cavity was washed out with 2 ml of phosphate-buffered saline (PB$-A, Oxoid). The exudate volume was recorded and cell counts were determined using an automatic cell counter (Coulter). Differential cell counts were performed on exudate smears stained with Giemsa stain in order to determine separately the numbers of polymorphonuclear leucocytes (PMN) and mononuclear cells (MN).
Immediately after recovery of the pleural exudates the tibiae of the animals were excised and their breaking strains were determined.
The body weights of the animals were recorded daily. Statistical analyses were performed using Student's two-tailed t test.
In the following table the dose is in mg per kg per day.

[3] = test system: delayed hypersensitivity to methylated bovine serum albumin (MBSA); assay: MBSA delayed hypersensitivity test (Table II)
Method: The dose volumes used were 5 ml.kg^-1 for rats and 10 ml.kg^-1 for mice. Controls were dosed with the appropriate volume of arachis oil vehicle.
Animals -- Male and female MFI mice substrain E33. Initial weight approximately 25 gm.
Materials -- Methylated bovine serum albumin (MBSA) (Sigma) Freunds complete adjuvant (Difco)
Method -- Groups of 10 mice were sensitized (day 0) by injecting intradermally at two abdominal. sites 0.05 ml. of a water in oil emulsion of MBSA and Freunds complete adjuvant. On day 9 the mice were challenged by injecting 20 l of a 1% MBSA solution to one paw and 20 l of water into the contralateral paw. Paw volumes were measured 24 hours later by mercury displacement plethysmography. The means percentage increase in paw volume of the MBSA-challenged paw compared with the water challenged paw was calculated for each treatment group. Dosing with vehicle and retinold commenced on day 0 and finished on day 9.

[4] = test system: adjuvant arthritis in the rat; assay: developing adjuvant arthritis in the rat (Table III); type: in vivo, AHH/R female rats (PVG derived); conditions: 15 mg.kg^-1 p.o.
Method: Animals--AHH/R Female rats (PVG derived with an initial weight range of 110 to 140 g. were used.
Materials--Adjuvant for injection. An homogenized suspension of heat killed M. tuberculosis (Human strains C, DT and PN), 5 mg.Ml^-1 in liquid Paraffin was Prepared.
Method Rats were randomly split into groups of five and adjuvant arthritis was induced by the sub-plantar injection of 0.1 ml of adjuvant susPension into the right hind paw of each rat. Test compounds were administered by intubation each morning commencing the day of adjuvant injection. Two groups of control rats were dosed with the vehicle as was a group of three normal rats included for comparative purposes. Dosing was carried out daily until the end of the test on day 15 except for the first weekend (days 5 & 6). Treatment groups are shown in Table III and include etretinate as standard retinoid.
Measurements of right hind paw volume were made initially and on days 2 and 4 after and adjufant injection (primary phase). Right and left hind paw volume were then measured on day 8 and every two or three days until the end of the experiment on day 15 (secondary phase). At this time the mobility of each ankle joint and the
incidence and severity of secondary lesions on nose, ears, forepaws, left hind paw and tail were also assessed in terms of degrees of flexion possible and by using an arbitrary scoring system, respectively.
The time course curves for the injected paws were integrated from days 0 to 4 to reflect primary swelling and from days 8 to 15 (secondary swelling). The secondary swelling in the non-injected paw was integrated similarly from days 8 to 15. Calculations were carried out using a specific computer program which computed mean ± se for each integrated area. The significance of differences from controls was determined by Student s t test (2 tailed) and percentage reductions from control areas were calculated. Percentage improvements in joint mobility and percentage reductions in lesion score were also determined. In the latter case the Wilcoxon rank sum test (2 tailed) was used to express the difference from the control score using raw data. Mean body weight change in each group was recorded.

SMILES: CCCCCCCCCOc1ccc(OC)cc1/C=C/C(C)=C/C=C/C(C)=C/C(=O)O
Body Weight Gain (adjuvant arthritis; oral 75 μMol/Kg): +27 g

SMILES: CCCCCCCCNc1ccccc1/C=C/C(C)=C/C=C/C(C)=C/C(=O)OCC
Body Weight Gain (adjuvant arthritis; oral 75 μMol/Kg): +24 g

SMILES: CCCCCCCCCOc1cccc(Cl)c1/C=C/C(C)=C/C=C/C(C)=C/C(=O)O
Body Weight Gain (adjuvant arthritis; oral 75 μMol/Kg): +35 g

SMILES: CC(/C=C/c1ccccc1OCCCCCCCCO)=C\C=C\C(C)=C\C(=O)O
change in vivo at 95 µmol/kg (adjuvant arthritis; oral 95 μMol/Kg, read-out: % Reduction in Paw Volume On day 23, Left): -49%
change in vivo at 95 µmol/kg (adjuvant arthritis; oral 95 μMol/Kg, read-out: % Reduction in Paw Volume On day 23, Right): -37%
Body Weight Gain (adjuvant arthritis; oral 95 μMol/Kg): +27 g
Plasma fibrinogen % change (reduction) (adjuvant arthritis; oral 95 μMol/Kg): -35%

SMILES: CCCCCCCCCOc1cccc(F)c1/C=C/C(C)=C/C=C/C(C)=C/C(=O)O
Body Weight Gain (adjuvant arthritis; oral 75 μMol/Kg): +46 g

weight during treatment (in words) [1]: Both male and female rats lost weight
Tibial Breaking Strain (Right + Left) % change ([2]; 10 mg/kg/day p.o.): -3.4%
Tibial Breaking Strain (Right + Left) Mean ([2]; 10 mg/kg/day p.o.): 6.5 kg
Tibial Breaking Strain (Right + Left) % change ([2]; 30 mg/kg/day p.o.): +1.5%
Tibial Breaking Strain (Right + Left) Mean ([2]; 30 mg/kg/day p.o.): 6.8 kg
Tibial Breaking Strain (Right + Left) % change ([2]; 100 mg/kg/day p.o.): -0.3%
Tibial Breaking Strain (Right + Left) Mean ([2]; 100 mg/kg/day p.o.): 6.7 kg
SMILES: CCCCCCCCCOc1ccccc1/C=C/C(C)=C/C=C/C(C)=C/C(=O)O [Compound A, All(E)-9-[2-(nonyloxy)phenyl]-3,7-dimethyl-2,4,6,8-nonatetraenoic acid]
Mean body weight ([3]; 10 mg.kg^-1 oral, female (F)): -0.2 g
Mean body weight ([3]; 10 mg.kg^-1 oral, male (M)): 3.3 g
Mean body weight ([3]; 30 mg.kg^-1 oral, female (F)): 0.5 g
Mean body weight ([3]; 30 mg.kg^-1 oral, male (M)): 2.8 g
Mean body weight ([3]; 100 mg.kg^-1 oral, female (F)): -0.2 g
Mean body weight ([3]; 100 mg.kg^-1 oral, male (M)): 3.3 g

SMILES: CCOC(=O)/C=C(C)/C=C/C=C(C)/C=C/c1c(C)cc(OC)c(C)c1C [Etretinate, etretinate]
Joint Mobility (% INC) [4]: 50%
Lesion Score (% RDN) [4]: 56%
% reduction of paw swelling, Secondary (left) ([4]; days 8-15): 30%
% reduction of paw swelling, Secondary (right) ([4]; days 8-15): 67%
% (cf. arachis oil control) ([3]; 10 mg.kg^-1 oral, 10 doses): 46%
Mean body weight ([3]; 10 mg.kg^-1 oral, female (F)): -2.0 g
Mean body weight ([3]; 10 mg.kg^-1 oral, male (M)): -0.8 g

SMILES: COc1ccc2c(c1)c(CC(=O)O)c(C)n2C(=O)c1ccc(Cl)cc1 [Indomethacin, reference compound]
change in vivo at 3 µmol/kg (adjuvant arthritis; read-out: % Reduction in Paw Volume On day 23, Left): -67%
change in vivo at 3 µmol/kg (adjuvant arthritis; read-out: % Reduction in Paw Volume On day 23, Right): -66%

SMILES: CCCCCCCCCOc1ccccc1/C=C/C(C)=C/C=C/C(C)=C/C(=O)O [drawing 6]
Body Weight Gain (adjuvant arthritis; oral 76 μMol/Kg): +27 g

SMILES: CC1=C(/C=C/C(C)=C/C=C/C(C)=C\C(=O)O)C(C)(C)CCC1 [reference compound]
Body Weight Gain (adjuvant arthritis; oral 60 μMol/Kg): -7 g

From US4883614A, “Phenyl substituted-2,4,6,8-nonatetraenoic acid” (Hoffman-La Roche Inc., priority 1986, dated 1989)
